Entries after “also recorded” stand apart in the source; their conditions may differ.
Assays:
Aβ42 = molecular target: T1, Aβ42 (Homo sapiens, UniProt P05067); assay: Aβ42 aggregation kinetics in human CSF; format: biochemical; details: 66% CSF; 1.25 and 5-fold excess
T1 construct: made in house; host or cells: E. coli BL21 Gold (DE3)
Experimental: For the experiments of Aβ42 aggregation kinetics in human CSF, monomeric solutions of 3 μM Aβ42 were prepared similar to above with the only exception that the buffer was 20 mM Hepes, pH 8 supplemented with 1 mM CaCl2 at 150 mM NaCl. The obtained monomer was diluted with the […] in order to reach 66% final concentration of CSF, in which the effect of CSF is close to maximum. Aβ42 aggregation kinetics were performed in the absence and the presence of 1.25 and 5-fold excess of Netoglitazone.

[1] = test system: ROS production in AD worms; assay: ROS production (ROS-Glo H2O2 assay) in AD worms; format: in vivo, C. elegans; details: 5 μM administered at L4; D5 of adulthood
Experimental: ROS-Glo™ H2O2 cell kit assay was used (Promega, Fitchburg, Wis., USA) and adapted for C. elegans studies. The ROS-Glo™ H2O2 Assay is a bioluminescent assay that measures the level of H2O2, a reactive oxygen species (ROS), directly in cell culture or tissue or in defined enzyme reactions. A derivatized luciferin substrate is incubated with sample and reacts directly with H2O2 to generate a luciferin precursor. Worms treated with 5 μM Netoglitazone in 1% DMSO or 1% DMSO only were washed using M9 buffer out the NGM plates. The buffer was then changed 3 times to remove the excess bacteria. Worm pellets were then divided in three wells and 80 μl of worm pellet (around 200 worms/well) was incubated for 6 h at RT with 20 μl of a ROS Substrate Solution (Promega, Fitchburg, Wis., USA); mild shaking at 300 rpm was used to avoid worm sedimentation; afterwards, worms were incubated for ca. 20 min with 100 μl of the detection solution; luminescence was then measured with a Clariostar (BMG Labtech, Aylesbury, UK).

PD worms (NL5901) = assay: Automated motility assay in PD worms; format: in vivo, C. elegans; details: same concentration range as in AD worms
Experimental: Standard conditions were used for the propagation of C. elegans (S. Brenner, The genetics of Caenorhabditis elegans. Genetics. 77, 71-94 (1974)). Briefly, the animals were synchronized by hypochlorite bleaching, hatched overnight in M9 buffer (3 g/l KH2PO4, 6 g/l Na2HPO4, 5 g/l NaCl, […]), and subsequently cultured at 20° C. on nematode growth medium (NGM) (CaCl2) 1 mM, MgSO4 1 mM, cholesterol 5 μg/mL, PBS Buffer (250 μM KH2PO4, 67.5 μM KCl, 3.425 mM of NaCl, pH 6), Agar 17 g/L, NaCl 3 g/1, casein 7.5 g/l) plates seeded with the E. coli strain OP50. […]
All C. elegans populations were cultured at 20° C. and developmentally synchronized from a 4 h egg-lay. At 64-72 h post-egg-lay (time zero), individuals were transferred to FUDR plates, and body movements were assessed over the times indicated. At different ages, the animals were washed off the plates with M9 buffer and spread over an OP-50 unseeded 9 cm plate, after which their movements were recorded at 20 fps using a recently developed microscopic procedure (M. Perni et al., Massively parallel C. elegans tracking provides multi-dimensional fingerprints for phenotypic discovery. J. Neurosci. Methods. 306, 57-67 (2018)) for 1 min. Up to 600 animals were counted in each experiment in duplicate unless stated otherwise. […]

Aβ42 oligomers = molecular target: T2, Aβ42 oligomers (Homo sapiens, UniProt P05067); assay: ELISA with oligomer-specific antibody; format: biochemical; details: 5 μM Aβ42; 5-fold excess; at half-time of Aβ42 alone
T2 construct: made in house; host or cells: E. coli BL21 Gold (DE3)
T2 sequence (P05067 671-713): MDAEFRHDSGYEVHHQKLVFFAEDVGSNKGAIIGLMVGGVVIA
Experimental: 20 μl Aliquots were taken at the t50 (i.e. half-time) from aggregation reactions of 5 μM Aβ42 in the absence and in the presence of 5-fold excess of Netoglitazone. Samples were then immobilised on a 96-well Maxisorp ELISA plate (Nunc, Roskilde, Denmark) with no shaking for 1 h at room temperature. The plate was then washed three times with 20 mM Tris pH 7.4, 100 mM NaCl and incubated in 20 mM Tris pH 7.4, 100 mM NaCl, 5% BSA under constant shaking overnight at 4° C. The day after the plate was washed six times with 20 mM Tris pH 7.4, 100 mM NaCl and then incubated with 30 μl solutions of 5 μM oligomer-specific antibody under constant shaking either for 1 hour or overnight at room temperature. At the end of this incubation, the plate was washed six times with 20 mM Tris pH 7.4, 100 mM NaCl and incubated with 30 μl solutions of Rabbit polyclonal to 6× His Tag® HRP conjugated (Abcam, Cambridge, UK) at a dilution of 1:4000 in 20 mM Tris pH 7.4, 100 mM NaCl, 5% BSA under shaking for 1 hour at room temperature. […] Finally, the amount of bound oligomer-specific antibody was quantified by using 1-Step™ Ultra TMB-ELISA Substrate Solution (ThermoFisher Scientific, Waltham, Mass., United States), according to manufacturer instructions, and measuring the absorbance at 450 nm by means of a CLARIOstar plate reader (BMG Labtech, Aylesbury, UK).

T1 sequence (P05067 671-713): as above

## O=C1NC(=O)C(Cc2ccc3cc(OCc4ccccc4F)ccc3c2)S1 (stereo not shown) [Netoglitazone]
Aβ42
  Delay of Aβ42 aggregation kinetics in 66% human CSF: significantly delayed the aggregation kinetics in a concentration-dependent manner
[1]
  ROS production / levels of oxidative species in AD worms: significantly decreased the levels of oxidative species; also recorded: restores the ROS production in AD worms to normal levels
PD worms (NL5901)
  Effect on mobility of PD worms: negligible compared to the observed effect in AD worms
Aβ42 oligomers
  Aβ42 oligomer concentration (ELISA): significant reduction in the Aβ42 oligomer concentration
